Assay results published in ChEMBL document CHEMBL5291721, “A preclinical secondary pharmacology resource illuminates target-adverse drug reaction associations of marketed drugs” (Nat Commun, 2023).

Tests used:
[1] = molecular target: Beta-2 adrenergic receptor (Homo sapiens, UniProt P07550); format: functional, cell-based
[2] = molecular target: Growth hormone secretagogue receptor type 1 (Homo sapiens, UniProt Q92847)
Progesterone receptor = molecular target: T1, Progesterone receptor (Homo sapiens, UniProt P06401); format: functional
T1 sequence (P06401 whole entry): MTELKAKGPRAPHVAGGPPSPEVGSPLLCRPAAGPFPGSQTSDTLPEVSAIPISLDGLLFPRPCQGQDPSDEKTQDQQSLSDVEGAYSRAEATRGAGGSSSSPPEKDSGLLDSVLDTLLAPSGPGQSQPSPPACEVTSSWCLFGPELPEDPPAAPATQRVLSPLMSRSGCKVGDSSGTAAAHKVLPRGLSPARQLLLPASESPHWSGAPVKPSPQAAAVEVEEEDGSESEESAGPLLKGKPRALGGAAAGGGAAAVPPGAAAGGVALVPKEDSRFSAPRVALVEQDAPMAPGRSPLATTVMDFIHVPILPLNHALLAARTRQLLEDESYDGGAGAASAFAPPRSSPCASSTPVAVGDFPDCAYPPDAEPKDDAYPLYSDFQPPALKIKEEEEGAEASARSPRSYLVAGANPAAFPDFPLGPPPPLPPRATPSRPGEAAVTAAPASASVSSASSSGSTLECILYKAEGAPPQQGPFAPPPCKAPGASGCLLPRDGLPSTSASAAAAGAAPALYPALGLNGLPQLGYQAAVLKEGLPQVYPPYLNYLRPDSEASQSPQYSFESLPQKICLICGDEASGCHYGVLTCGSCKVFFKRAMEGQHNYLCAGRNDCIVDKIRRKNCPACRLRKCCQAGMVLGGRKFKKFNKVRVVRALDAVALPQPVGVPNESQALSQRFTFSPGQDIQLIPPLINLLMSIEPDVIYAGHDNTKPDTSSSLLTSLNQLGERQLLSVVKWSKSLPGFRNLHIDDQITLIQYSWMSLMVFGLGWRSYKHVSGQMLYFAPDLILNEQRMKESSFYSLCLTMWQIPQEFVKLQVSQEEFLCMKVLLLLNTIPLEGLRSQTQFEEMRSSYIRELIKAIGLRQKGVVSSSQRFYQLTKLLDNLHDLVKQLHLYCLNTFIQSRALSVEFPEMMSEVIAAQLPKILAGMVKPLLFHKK

[3] = molecular target: Kappa-type opioid receptor (Homo sapiens, UniProt P41145)
[4] = molecular target: Gamma-aminobutyric acid receptor subunit alpha-1 (Rattus norvegicus, UniProt P62813); format: functional
Endothelin-1 receptor = molecular target: T2, Endothelin-1 receptor (Homo sapiens, UniProt P25101)
T2 sequence (P25101 whole entry): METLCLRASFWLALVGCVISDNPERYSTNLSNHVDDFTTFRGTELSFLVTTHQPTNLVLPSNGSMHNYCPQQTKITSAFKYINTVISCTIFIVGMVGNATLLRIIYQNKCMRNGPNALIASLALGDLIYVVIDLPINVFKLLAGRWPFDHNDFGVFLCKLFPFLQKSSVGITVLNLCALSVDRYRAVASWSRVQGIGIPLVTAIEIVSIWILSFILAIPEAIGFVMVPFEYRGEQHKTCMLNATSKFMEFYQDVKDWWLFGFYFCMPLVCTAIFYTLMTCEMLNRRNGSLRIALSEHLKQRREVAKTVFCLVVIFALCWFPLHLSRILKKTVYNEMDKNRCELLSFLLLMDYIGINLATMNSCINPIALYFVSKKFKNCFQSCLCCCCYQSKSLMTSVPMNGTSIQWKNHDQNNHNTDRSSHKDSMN

Cannabinoid receptor 1 [5] = molecular target: T3, Cannabinoid receptor 1 (Homo sapiens, UniProt P21554); format: functional, cell-based
Cannabinoid receptor 1 [6] = molecular target: T3, Cannabinoid receptor 1; format: functional, cell-based; remark: listed apart in the source
Melanocortin receptor 3 = Melanocortin receptor 3 (Homo sapiens, UniProt P41968)
[7] = molecular target: T4, 5-hydroxytryptamine receptor 2A (Homo sapiens, UniProt P28223); format: functional, cell-based
[8] = molecular target: T4, 5-hydroxytryptamine receptor 2A; format: functional, cell-based; remark: listed apart in the source
Mu-type opioid receptor = Mu-type opioid receptor (Homo sapiens, UniProt P35372)
Cannabinoid receptor 1 [9] = molecular target: T3, Cannabinoid receptor 1
Melanocortin receptor 4 = Melanocortin receptor 4 (Homo sapiens, UniProt P32245)
[10] = molecular target: T5, Alpha-1A adrenergic receptor (Homo sapiens, UniProt P35348)
T5 sequence (P35348 whole entry): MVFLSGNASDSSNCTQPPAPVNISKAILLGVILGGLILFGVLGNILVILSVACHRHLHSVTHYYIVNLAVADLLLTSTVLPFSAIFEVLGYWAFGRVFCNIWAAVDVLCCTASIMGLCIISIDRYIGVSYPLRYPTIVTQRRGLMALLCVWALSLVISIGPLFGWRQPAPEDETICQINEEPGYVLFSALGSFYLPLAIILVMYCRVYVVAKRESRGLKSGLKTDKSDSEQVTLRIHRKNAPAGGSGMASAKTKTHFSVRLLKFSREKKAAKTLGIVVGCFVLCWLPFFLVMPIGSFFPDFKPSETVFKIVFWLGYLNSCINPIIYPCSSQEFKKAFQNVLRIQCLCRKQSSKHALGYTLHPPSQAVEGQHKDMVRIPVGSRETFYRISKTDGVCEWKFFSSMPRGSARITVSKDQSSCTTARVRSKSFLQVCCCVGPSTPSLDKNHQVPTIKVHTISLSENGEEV

[11] = molecular target: T6, 5-hydroxytryptamine receptor 1A (Homo sapiens, UniProt P08908); format: functional, cell-based
T6 sequence (P08908 whole entry): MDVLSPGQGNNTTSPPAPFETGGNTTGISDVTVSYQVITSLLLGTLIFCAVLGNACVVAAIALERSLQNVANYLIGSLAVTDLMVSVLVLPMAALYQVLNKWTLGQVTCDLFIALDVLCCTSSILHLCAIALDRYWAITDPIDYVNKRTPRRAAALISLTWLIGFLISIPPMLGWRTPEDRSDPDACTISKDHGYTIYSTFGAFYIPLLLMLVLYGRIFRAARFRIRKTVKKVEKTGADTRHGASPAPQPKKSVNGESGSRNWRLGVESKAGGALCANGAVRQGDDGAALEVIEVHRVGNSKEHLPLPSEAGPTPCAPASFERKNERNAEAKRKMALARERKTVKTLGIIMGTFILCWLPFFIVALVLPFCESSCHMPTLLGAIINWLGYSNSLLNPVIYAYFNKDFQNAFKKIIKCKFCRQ
Further: assay procedure not described here.

Gamma-aminobutyric acid receptor subunit alpha-1, sequence (P62813 whole entry): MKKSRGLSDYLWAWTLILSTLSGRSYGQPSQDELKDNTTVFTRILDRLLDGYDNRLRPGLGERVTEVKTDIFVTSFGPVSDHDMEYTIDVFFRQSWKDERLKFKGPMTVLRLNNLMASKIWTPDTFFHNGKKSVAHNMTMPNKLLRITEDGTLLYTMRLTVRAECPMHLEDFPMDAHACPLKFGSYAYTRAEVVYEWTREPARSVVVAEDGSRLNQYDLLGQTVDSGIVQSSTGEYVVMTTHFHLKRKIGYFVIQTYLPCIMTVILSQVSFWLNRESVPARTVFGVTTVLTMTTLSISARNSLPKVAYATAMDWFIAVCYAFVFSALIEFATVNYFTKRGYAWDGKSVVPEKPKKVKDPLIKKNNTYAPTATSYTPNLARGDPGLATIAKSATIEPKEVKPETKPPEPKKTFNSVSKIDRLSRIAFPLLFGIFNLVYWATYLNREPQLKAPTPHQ
Growth hormone secretagogue receptor type 1, sequence (Q92847 whole entry): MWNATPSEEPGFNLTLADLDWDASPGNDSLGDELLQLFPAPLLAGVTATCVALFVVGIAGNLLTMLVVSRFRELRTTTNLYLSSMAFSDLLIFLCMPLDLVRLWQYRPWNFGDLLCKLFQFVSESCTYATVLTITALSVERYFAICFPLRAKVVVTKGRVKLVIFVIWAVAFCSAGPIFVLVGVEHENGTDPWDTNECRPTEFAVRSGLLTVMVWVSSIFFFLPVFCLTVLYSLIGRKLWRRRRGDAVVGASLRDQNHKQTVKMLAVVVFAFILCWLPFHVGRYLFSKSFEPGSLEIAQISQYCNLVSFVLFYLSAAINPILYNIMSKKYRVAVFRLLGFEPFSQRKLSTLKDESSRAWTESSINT
T4 sequence (P28223 whole entry): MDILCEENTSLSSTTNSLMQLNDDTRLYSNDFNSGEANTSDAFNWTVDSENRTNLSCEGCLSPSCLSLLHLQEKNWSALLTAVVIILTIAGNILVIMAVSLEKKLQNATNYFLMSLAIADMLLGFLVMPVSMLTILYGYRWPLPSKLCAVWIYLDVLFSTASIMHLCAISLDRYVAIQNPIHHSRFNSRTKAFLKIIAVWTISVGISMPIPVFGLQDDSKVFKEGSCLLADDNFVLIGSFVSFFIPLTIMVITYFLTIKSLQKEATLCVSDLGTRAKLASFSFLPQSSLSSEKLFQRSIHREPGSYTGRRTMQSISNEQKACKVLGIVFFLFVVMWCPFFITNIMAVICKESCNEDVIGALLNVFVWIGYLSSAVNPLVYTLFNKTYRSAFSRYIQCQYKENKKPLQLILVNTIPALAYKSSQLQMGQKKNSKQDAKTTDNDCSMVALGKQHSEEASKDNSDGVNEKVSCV
Melanocortin receptor 3, sequence (P41968 whole entry): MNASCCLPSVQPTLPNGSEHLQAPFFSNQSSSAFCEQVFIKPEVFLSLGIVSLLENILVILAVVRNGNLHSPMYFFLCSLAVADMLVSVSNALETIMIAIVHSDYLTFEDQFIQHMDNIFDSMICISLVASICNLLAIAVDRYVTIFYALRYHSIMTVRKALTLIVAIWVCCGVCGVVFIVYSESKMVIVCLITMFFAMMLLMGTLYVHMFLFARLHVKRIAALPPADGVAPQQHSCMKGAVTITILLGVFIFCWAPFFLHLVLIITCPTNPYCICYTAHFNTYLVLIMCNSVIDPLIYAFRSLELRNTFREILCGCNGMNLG
Beta-2 adrenergic receptor, sequence (P07550 whole entry): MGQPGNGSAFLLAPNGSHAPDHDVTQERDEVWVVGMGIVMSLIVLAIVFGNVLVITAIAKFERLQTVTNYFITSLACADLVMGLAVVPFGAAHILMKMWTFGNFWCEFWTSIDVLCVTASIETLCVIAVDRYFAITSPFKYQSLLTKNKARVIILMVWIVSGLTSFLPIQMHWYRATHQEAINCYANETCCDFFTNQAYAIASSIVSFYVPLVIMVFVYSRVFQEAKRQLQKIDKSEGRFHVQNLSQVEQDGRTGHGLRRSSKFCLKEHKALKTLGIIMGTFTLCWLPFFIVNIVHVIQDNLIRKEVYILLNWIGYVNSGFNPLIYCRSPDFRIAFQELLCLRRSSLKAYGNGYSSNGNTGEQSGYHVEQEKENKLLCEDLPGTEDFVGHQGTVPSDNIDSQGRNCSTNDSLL
Mu-type opioid receptor, sequence (P35372 whole entry): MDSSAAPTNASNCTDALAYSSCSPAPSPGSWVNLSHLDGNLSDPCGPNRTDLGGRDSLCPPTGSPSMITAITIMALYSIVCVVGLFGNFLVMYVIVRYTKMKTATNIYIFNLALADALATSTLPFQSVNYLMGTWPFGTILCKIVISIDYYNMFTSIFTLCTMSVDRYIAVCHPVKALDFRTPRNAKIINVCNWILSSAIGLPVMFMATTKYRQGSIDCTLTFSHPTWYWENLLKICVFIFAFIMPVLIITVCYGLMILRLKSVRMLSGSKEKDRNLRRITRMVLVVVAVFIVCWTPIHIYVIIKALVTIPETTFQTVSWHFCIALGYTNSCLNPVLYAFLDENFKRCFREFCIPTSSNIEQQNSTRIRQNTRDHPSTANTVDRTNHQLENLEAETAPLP
Melanocortin receptor 4, sequence (P32245 whole entry): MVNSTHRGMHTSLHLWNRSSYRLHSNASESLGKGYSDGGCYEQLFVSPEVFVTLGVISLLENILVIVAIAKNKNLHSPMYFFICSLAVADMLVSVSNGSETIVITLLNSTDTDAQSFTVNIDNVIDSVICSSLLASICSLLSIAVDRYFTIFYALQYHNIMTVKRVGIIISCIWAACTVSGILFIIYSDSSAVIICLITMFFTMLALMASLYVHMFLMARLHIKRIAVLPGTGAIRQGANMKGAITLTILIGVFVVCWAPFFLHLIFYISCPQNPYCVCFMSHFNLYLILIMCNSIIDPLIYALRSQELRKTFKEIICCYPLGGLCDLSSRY
T3 sequence (P21554 whole entry): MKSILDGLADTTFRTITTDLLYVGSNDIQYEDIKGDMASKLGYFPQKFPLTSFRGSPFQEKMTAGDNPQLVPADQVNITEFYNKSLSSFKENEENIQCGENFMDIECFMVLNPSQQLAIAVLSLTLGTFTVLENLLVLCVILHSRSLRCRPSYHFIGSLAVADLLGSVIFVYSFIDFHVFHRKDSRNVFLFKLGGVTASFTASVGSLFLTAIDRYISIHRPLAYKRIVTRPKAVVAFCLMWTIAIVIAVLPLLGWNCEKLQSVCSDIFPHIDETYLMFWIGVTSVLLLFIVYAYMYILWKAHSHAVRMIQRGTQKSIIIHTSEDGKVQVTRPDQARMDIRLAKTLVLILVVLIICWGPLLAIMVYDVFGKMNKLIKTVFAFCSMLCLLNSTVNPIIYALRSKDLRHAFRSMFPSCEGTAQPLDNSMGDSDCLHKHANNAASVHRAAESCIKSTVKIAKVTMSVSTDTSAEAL
Kappa-type opioid receptor, sequence (P41145 whole entry): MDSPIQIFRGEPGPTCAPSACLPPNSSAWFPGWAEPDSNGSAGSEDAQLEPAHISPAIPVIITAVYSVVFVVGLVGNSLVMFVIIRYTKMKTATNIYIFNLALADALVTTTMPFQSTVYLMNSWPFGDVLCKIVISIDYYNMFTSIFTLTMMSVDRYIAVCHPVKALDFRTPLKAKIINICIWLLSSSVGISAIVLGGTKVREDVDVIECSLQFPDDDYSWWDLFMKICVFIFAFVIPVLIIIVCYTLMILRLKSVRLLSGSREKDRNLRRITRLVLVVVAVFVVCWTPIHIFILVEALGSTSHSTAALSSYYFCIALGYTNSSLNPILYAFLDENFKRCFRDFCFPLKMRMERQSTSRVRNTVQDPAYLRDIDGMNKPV

Structure (SMILES) | AC50 [1] | AC50 [2] | AC50 (Progesterone receptor) | AC50 [3] | AC50 [4] | AC50 (Endothelin-1 receptor) | AC50 (Cannabinoid receptor 1 [5]) | AC50 (Cannabinoid receptor 1 [6]) | AC50 (Melanocortin receptor 3) | AC50 [7] | AC50 [8] | AC50 (Mu-type opioid receptor) | AC50 (Cannabinoid receptor 1 [9]) | AC50 (Melanocortin receptor 4) | AC50 [10] | AC50 [11]
NC(=O)CN1CCCC1=O | > 30 µM | > 30 µM | > 30 µM | > 30 µM | > 30 µM | > 30 µM | > 30 µM | > 30 µM | > 30 µM | – | – | – | – | – | – | –
C[N@+]1(CCF)[C@@H]2CC[C@H]1C[C@@H](OC(=O)C(O)(c1ccccc1)c1ccccc1)C2 | – | > 30 µM | > 30 µM | 26 µM | > 30 µM | > 30 µM | > 30 µM | > 30 µM | > 30 µM | > 30 µM | > 30 µM | – | – | – | – | –
Cn1c(=O)cc(N2CCC[C@@H](N)C2)n(Cc2ccccc2C#N)c1=O [ALOGLIPTIN] | – | > 30 µM | – | 8.32 µM | > 10 µM | > 30 µM | – | – | > 30 µM | – | – | 8.8 µM | > 10 µM | > 30 µM | – | –
CCN1CCCC1CNC(=O)c1cc(S(=O)(=O)CC)c(N)cc1OC (centres undefined) [AMISULPRIDE] | > 30 µM | > 30 µM | > 30 µM | > 30 µM | > 30 µM | > 30 µM | > 30 µM | > 30 µM | > 30 µM | – | – | – | – | – | > 30 µM | > 30 µM
O=C(O)CCNC(=O)c1ccccc1 [BETAMIPRON] | > 30 µM | > 30 µM | > 30 µM | > 30 µM | > 30 µM | > 30 µM | > 30 µM | > 30 µM | > 30 µM | – | – | – | – | – | – | > 30 µM
COc1cc2ncnc(Nc3ccc(F)c(Cl)c3)c2cc1NC(=O)/C=C/CN1CCCCC1 [DACOMITINIB ANHYDROUS] | – | – | > 10 µM | – | – | – | – | – | 27 µM | > 30 µM | > 30 µM | – | – | – | – | –
CC(=O)OCC(=O)[C@@]1(O)[C@H](C)C[C@H]2[C@@H]3CCC4=CC(=O)C=C[C@]4(C)[C@@]3(F)[C@@H](O)C[C@@]21C [DEXAMETHASONE ACETATE] | – | > 30 µM | – | > 10 µM | > 10 µM | > 30 µM | 20 µM | > 30 µM | > 30 µM | – | – | > 30 µM | – | > 30 µM | > 10 µM | > 10 µM
CCN(CC)CCN1C(=O)CN=C(c2ccccc2F)c2cc(Cl)ccc21 [FLURAZEPAM] | > 30 µM | 22.9 µM | – | 0.21 µM | 0.0512 µM | – | – | – | > 30 µM | – | – | > 30 µM | > 10 µM | > 30 µM | > 10 µM | –
CC(=O)[C@]1(O)Cc2c(O)c3c(c(O)c2[C@@H](O[C@H]2C[C@H](N)[C@H](O)[C@H](C)O2)C1)C(=O)c1ccccc1C3=O [IDARUBICIN] | > 30 µM | 7.7 µM | – | – | > 30 µM | > 30 µM | – | – | – | – | – | – | – | – | – | –
Nc1cc(-c2ccncc2)c[nH]c1=O [INAMRINONE] | > 30 µM | > 30 µM | – | > 10 µM | > 10 µM | – | > 30 µM | > 30 µM | > 30 µM | – | – | > 30 µM | > 10 µM | > 30 µM | > 10 µM | > 10 µM
Cc1ncc2n1-c1ccc(Cl)cc1C(c1ccccc1F)=NC2 [MIDAZOLAM] | > 30 µM | > 30 µM | – | – | 0.0025 µM | – | – | – | > 30 µM | – | – | > 30 µM | > 10 µM | > 30 µM | > 10 µM | –
C/C(=C\C(=O)OCCCCCCCCC(=O)O)C[C@@H]1OC[C@H](C[C@@H]2O[C@H]2[C@@H](C)[C@H](C)O)[C@@H](O)[C@H]1O [MUPIROCIN] | – | > 10 µM | > 10 µM | > 10 µM | > 10 µM | – | – | – | > 10 µM | – | – | > 30 µM | > 10 µM | > 10 µM | > 10 µM | > 10 µM
O=C1CN=C(c2ccccc2)c2cc([N+](=O)[O-])ccc2N1 [NITRAZEPAM] | – | > 10 µM | > 10 µM | > 10 µM | 0.022 µM | – | – | – | > 10 µM | – | – | > 30 µM | > 10 µM | > 10 µM | > 30 µM | > 10 µM
COc1ccc2nc3cc(Cl)ccc3c(Nc3cc(CN4CCCC4)c(O)c(CN4CCCC4)c3)c2n1 [PYRONARIDINE] | – | 26 µM | – | 15 µM | > 30 µM | > 30 µM | > 30 µM | > 30 µM | > 30 µM | > 30 µM | > 30 µM | – | – | – | – | –
CN(C(=O)c1c(O)c2ccccc2n(C)c1=O)c1ccccc1 [ROQUINIMEX] | – | – | 29 µM | – | – | – | – | – | > 30 µM | > 30 µM | > 30 µM | – | – | – | – | –
OCc1cc(C(O)CNCCCCCCOCCCCc2ccccc2)ccc1O (centres undefined) [SALMETEROL] | – | > 30 µM | > 30 µM | 11 µM | > 10 µM | – | > 30 µM | > 30 µM | > 30 µM | – | – | > 30 µM | > 10 µM | > 30 µM | – | –
Cn1cnc2c(F)c(Nc3ccc(Br)cc3Cl)c(C(=O)NOCCO)cc21 [SELUMETINIB] | – | – | – | – | – | – | – | – | > 30 µM | – | – | > 30 µM | – | – | > 10 µM | –
CCN(CC)CCNC(=O)c1cc(S(C)(=O)=O)ccc1OC [TIAPRIDE] | – | > 30 µM | > 30 µM | > 30 µM | > 30 µM | > 30 µM | > 30 µM | > 30 µM | > 30 µM | – | – | – | – | – | – | > 30 µM
NC1CCN(c2nc3c(cc2F)c(=O)c(C(=O)O)cn3-c2ccc(F)cc2F)C1 (centres undefined) [TOSUFLOXACIN] | – | > 30 µM | > 30 µM | > 30 µM | > 30 µM | > 30 µM | > 30 µM | > 30 µM | > 30 µM | – | – | – | – | – | – | –
